Where only a bound is given, the exact number is not on record here.

With `CCOC(=O)CSc1n[nH]c(=S)[nH]1`, the melting point lay in the range of 134 to 136 °C.

For the compound `Cc1nc2c(s1)-c1nc(N(C)c3cccc([N+](=O)[O-])c3)ncc1CC2`, the melting point was 203 to 204 °C.

Turning to `NC(=O)c1cc(O)ccc1Cl`, the melting point was 159 to 161 °C.

With `CCCCCCCC(=O)C(CC(=O)OCC)C(=O)OCC` (centres undefined), the melting point lay within 138 to 142 °C.

The compound `O=C(O)c1cccc(CS(=O)(=O)CCO)c1` gave a melting point of 67 to 70 °C.

On to `CC(F)(F)c1cccc(-n2cnc(CO)c2)c1`, for which the melting point fell in the range of 104 to 108 °C.

The compound `O=C(O)c1cccc(-c2ncn(-c3ccc(N4CCCC4)cc3)n2)c1` gave a melting point of 263 to 265 °C.

For the compound `CCCCc1nc(C(=O)CC)c(C#N)n1C(c1ccccc1)(c1ccccc1)c1ccccc1`, the melting point is 140 to 143 °C.

In turn, `COc1ccc(CCN(C)CCOc2ccc(NC(=O)c3cccc4c(=O)c5cccc(OC)c5[nH]c34)cc2)cc1OC` showed a melting point of 190 °C.

As for `O=[N+]([O-])c1cn2c(n1)OC[C@@H](OCC#Cc1ccc(Br)cc1)C2`, the melting point is 160 to 162 °C.

Regarding `COC(=O)C1=C(C)NC(C)=C(C(=O)OCCN2CCN(C(c3ccccc3)c3ccccc3)CC2)C1c1cccc(C(F)(F)F)c1` (centres undefined), the melting point was 70 to 72 °C.

Compound `O=C(O)CCc1oc(Sc2nccn2-c2ccccc2)nc1-c1ccc(Cl)cc1` showed a melting point of 185 to 187 °C.

The compound `Nc1nc(C(=O)O)c(-c2ccncc2)s1` displayed a melting point of 211 °C.

In turn, `Cc1ccc(-c2nc(C)cc(O)n2)cc1` came in with a melting point of 206 to 207 °C.

`CC(C)c1nc(C#N)c(C#N)[nH]1` showed a melting point of 146 to 149 °C.

Compound `COC(=O)c1ccc2c(c1)COC(C(Cl)(Cl)Cl)N2` (centres undefined) gave a melting point of 116 to 117 °C.

In the case of `O=[N+]([O-])c1ccc(Oc2ccc(C3(c4ccc(Oc5ccc([N+](=O)[O-])c(O)c5)cc4)C4CC5CC(C4)CC3C5)cc2)cc1O`, the melting point was 248 to 250 °C.

As to `CCCCCCCCOc1ccc(-c2cc(F)cc(F)c2F)cc1`, the melting point came out at 31 °C.

Take `Cc1ccc(S(=O)(=O)N2CC2CBr)cc1` (centres undefined): the melting point is 75 to 78 °C.

Regarding `O=C(Oc1ccccc1)c1n[nH]c2c(=O)[nH]c3cc(Cl)ccc3c(=O)c12`, the melting point stood at 265 °C.

`O=C1N(Cc2ccc(-c3ccccc3C(F)(F)F)o2)c2ccccc2C12COc1cc3c(cc12)OCO3` (centres undefined) yielded a melting point of 124 to 126 °C.

In the case of `Nc1cccc(-c2ccc(CCN3CCC(N)CC3)cc2)n1`, the melting point lay in the range of 190 to 195 °C.

As to `COc1ccc2[nH]c3c(C(=O)Nc4ccc(CCCCN(C)CCc5ccc(OC)c(OC)c5)cc4)cccc3c(=O)c2c1`, the melting point came out at 155 °C.

`CCC(C)Sc1cc(C(F)(F)F)ccc1C(=O)c1cnoc1C1CC1` (centres undefined): the melting point lay within 75.6 to 76.4 °C.

`CCCCc1nn(-c2cc(NC(C)=O)ccc2Cl)c(=O)n1Cc1ccc(-c2cc(CCC)ccc2S(=O)(=O)NC(=O)OC(C)(C)C)cc1F`: the melting point is less than 130 °C.

`N#CCc1cc([N+](=O)[O-])c(F)cc1Cl` returned a melting point of 67 to 68 °C.

The compound `COc1cccc(OC)c1-c1ccc(C[C@H](NC(=O)c2c(Cl)cccc2Cl)C(=O)O)cc1NC(C)=O` registered a melting point of 142 to 144 °C.

Regarding `CCOC(=O)C(=CNc1ccc(F)c(-c2ccncc2)n1)C(=O)OCC`, the melting point fell in the range of 140 to 141 °C.

As to `CCCCCCCCCCCCCCCC(=O)N[C@@H](CSC(=O)CCCCCCCCCCCCCCC)C(=O)O`, the melting point fell in the range of 82 to 84 °C.

As to `COc1cc2c3c(nc4ccc(Cl)cc4c3c1)-c1ccccc1N2`, the melting point was in the range of 205 to 207 °C.

For the compound `Cc1ccc2nc(NC3=NCCN3)[nH]c2c1C`, the melting point lay within 199 to 204 °C.

As to `CSc1cc(C(C)(C)C)c(O)c(-c2nc3ccc(S(=O)(=O)C(F)(F)F)cc3[nH]2)c1C`, the melting point lay in the range of 210 to 211 °C.

The compound `CCOc1ccccc1C=[N+]([O-])C(C)C` came in with a melting point of 59.4 °C.

`COCCc1nc2c(N)nc3ccccc3c2n1CCCCCCCCNS(=O)(=O)c1ccccc1` gave a melting point of 146 to 149 °C.

In general, melting point refers to the temperature, or range, at which the solid turns liquid.

The record behind these values is a melting point compilation (Tetko et al.; mined from patent text by program, amines drawn as free bases though some values may be those of a salt).
